Literature values, collected in patent US20070032460A1, “Use of voacamine and related compounds in the treatment of malaria” (priority 2005, published 2007).

System: multi-drug resistant tumor cells
Conditions: cited from earlier work

For `CC=C1CN(C)C2Cc3c([nH]c4ccccc34)C(c3cc4[nH]c5c(c4cc3OC)CCN3CC4CC(CC)C3C5(C(=O)OC)C4)CC1C2C(=O)OC` (stereo not shown) [VOA, Voacamine], which “effect on vinblastine-mediated cytotoxicity” value is on record?
Its value is “enhance vinblastine-mediated cytotbxicity”.
